The source made the active and inactive calls.
Experiments:
[1] = biological target: Large T antigen (Simian virus 40, UniProt P03070); assay type: functional, Betapolyomavirus macacae;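 note: Confirmatory-stage PubChem screen for compounds that inhibit SV40 T antigen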
[2] = biological target: T1, Rac GTPase-activating protein 1 (Homo sapiens, UniProt Q9H0H5); experiment: MgcRacGAP GTPase-activating activity inhibitors, confirmation, biochemical, ADP Hunter fluorescence, primary and confirmatory (AID 624330); assay type: functional
T1 sequence (Q9H0H5 whole entry): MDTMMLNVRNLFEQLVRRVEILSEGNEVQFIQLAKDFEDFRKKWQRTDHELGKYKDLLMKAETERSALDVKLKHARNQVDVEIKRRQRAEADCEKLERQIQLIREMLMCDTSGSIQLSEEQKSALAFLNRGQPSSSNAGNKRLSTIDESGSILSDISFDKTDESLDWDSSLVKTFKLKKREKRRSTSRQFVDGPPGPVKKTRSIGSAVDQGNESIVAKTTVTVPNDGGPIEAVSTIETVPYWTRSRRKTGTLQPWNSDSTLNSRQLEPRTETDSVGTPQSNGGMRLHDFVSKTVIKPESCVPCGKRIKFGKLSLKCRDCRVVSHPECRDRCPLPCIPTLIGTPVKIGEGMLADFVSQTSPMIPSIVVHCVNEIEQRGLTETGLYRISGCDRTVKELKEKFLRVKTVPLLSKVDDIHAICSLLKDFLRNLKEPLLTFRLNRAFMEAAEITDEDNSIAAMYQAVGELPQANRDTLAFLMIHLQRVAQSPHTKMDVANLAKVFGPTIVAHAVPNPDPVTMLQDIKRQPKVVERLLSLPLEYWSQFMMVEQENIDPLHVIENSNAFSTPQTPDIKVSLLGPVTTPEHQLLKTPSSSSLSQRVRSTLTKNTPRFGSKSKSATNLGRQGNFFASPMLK

[3] = Luminescence Cell-Based Dose Retest to Confirm Inhibitors of Cancer Stem Cells. [Related pubchem assays (depositor defined):AID2717, AID2721]; assay type: functional; settings: Homo sapiens
[4] = growth suppression of PTEN-null colon cells, dose response, cell-based, HCT116 PTEN knockout (AID 1047); assay type: functional;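 note: HCT116 colon tumor cells with PTEN knocked out; cells exposed to compound for 60 hours before readout; potency for loss of cell viability measured by luminescence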
[5] = growth suppression of beta-catenin-knockout colon cells, dose response, cell-based, HCT116, human colon tumor (AID 1045); assay type: functional;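 note: HCT116 colon tumor cells with beta catenin knocked out; cells exposed to compound for 60 hours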
[6] = biological target: T2, Heat shock factor protein 1 (Mus musculus, UniProt P38532); experiment: HSF1 potentiators in luciferase reporter cells, confirmation, cell-based, NIH3T3, luminescence, dose retest (AID 435004); assay type: functional;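 note: stress induced by proteasome inhibitor MG132 added 30 min after compound; luciferase reporter driven by HSF1 response element in NIH3T3 cells; actives raise luminescence as potentiators of the MG132 stress response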
T2 sequence (P38532 whole entry): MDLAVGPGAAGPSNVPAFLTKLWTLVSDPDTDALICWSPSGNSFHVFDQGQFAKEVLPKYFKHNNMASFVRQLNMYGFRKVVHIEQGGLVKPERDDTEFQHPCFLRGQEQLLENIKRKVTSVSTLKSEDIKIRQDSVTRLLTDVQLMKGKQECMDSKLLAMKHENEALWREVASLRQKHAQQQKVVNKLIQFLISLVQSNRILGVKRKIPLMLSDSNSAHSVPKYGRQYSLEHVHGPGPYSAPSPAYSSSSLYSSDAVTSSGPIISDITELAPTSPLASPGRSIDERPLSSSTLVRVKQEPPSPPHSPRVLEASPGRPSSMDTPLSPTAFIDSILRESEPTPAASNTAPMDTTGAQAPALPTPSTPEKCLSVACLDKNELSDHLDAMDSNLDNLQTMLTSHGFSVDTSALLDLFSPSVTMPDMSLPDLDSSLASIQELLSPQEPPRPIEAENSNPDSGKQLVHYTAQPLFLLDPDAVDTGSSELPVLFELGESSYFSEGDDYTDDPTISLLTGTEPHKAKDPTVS

[7] = inhibitors of SNCA 5'UTR-driven reporter translation, confirmation, H4 neuroglioma cells, luminescence (AID 1988); assay type: functional, cell-based
[8] = inhibitors of firefly luciferase expression or activity, dose response, H4 neuroglioma cells, luminescence (AID 1990); assay type: functional, cell-based
[9] = Luminescence Cell-Based Dose Response HTS to Identify Inhibitors of 5'UTR Stem-Loop Driven Prion Protein mRNA Translation in H4 Neuroglioblastoma Cells. [Related pubchem assays: 1827 (Project Summary), 1813 (Primary HTS)]; assay type: functional
[10] = tested on: H4; experiment: Luminescence Cell-Based Dose Response HTS to Identify Activators of 5'UTR Stem-Loop Driven Prion Protein mRNA Translation in H4 Neuroglioblastoma Cells. [Related pubchem assays: 1829 (Project Summary), 1814 (Primary HTS)]; assay type: functional; settings: Homo sapiens
[11] = Luminescence Cell-Based Dose Confirmation HTS to Identify Activators of 5'UTR Stem-Loop Driven Alpha-Synuclein mRNA Translation in H4 Neuroglioblastoma Cells. [Related pubchem assays: 1829 (Project Summary), 1814 (Primary HTS)]; assay type: functional
[12] = Luminescence Cell-Based Dose Response HTS to Identify Activators of Luciferase Translation or Activity in H4 […] Cells. [Related pubchem assays: 1829 (Project Summary), 1814 (Primary HTS)]; assay type: functional
[13] = biological target: T3, Corticotropin-releasing factor receptor 2/Corticotropin-releasing factor-binding protein (Homo sapiens, UniProt P24387+Q13324); experiment: Dose Response confirmation of uHTS hits for small molecule antagonists of the CRF-binding protein and CRF-R2 receptor complex.; assay type: functional; settings: read-out: IC50_Mean
T3 sequence (Q13324 whole entry): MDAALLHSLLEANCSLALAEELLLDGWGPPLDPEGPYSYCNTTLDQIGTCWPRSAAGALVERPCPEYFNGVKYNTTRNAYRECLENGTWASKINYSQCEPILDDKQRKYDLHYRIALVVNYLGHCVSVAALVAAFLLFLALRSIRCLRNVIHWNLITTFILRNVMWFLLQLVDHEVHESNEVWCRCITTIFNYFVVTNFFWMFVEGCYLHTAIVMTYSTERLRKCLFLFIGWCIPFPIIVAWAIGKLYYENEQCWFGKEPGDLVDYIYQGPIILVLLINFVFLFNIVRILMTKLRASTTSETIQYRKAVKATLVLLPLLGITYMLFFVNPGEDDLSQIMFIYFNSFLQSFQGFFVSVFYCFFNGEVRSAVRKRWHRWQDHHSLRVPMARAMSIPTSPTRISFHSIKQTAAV
T3 sequence (P24387 whole entry): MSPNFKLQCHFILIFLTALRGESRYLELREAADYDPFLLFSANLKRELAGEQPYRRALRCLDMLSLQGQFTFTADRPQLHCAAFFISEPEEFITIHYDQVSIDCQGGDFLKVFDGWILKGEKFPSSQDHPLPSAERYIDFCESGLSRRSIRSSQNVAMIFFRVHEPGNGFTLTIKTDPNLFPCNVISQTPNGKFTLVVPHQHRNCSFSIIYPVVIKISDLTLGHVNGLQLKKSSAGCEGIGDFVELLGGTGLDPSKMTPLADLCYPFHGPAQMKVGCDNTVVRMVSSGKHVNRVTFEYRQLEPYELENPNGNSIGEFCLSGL

[14] = biological target: T3, Corticotropin-releasing factor receptor 2/Corticotropin-releasing factor-binding protein; experiment: activators of CRF receptor 2 with binding protein – uHTS hits, confirmation (AID 602473); assay type: functional; settings: read-out: EC50_Mean
[15] = biological target: T4, Cytochrome P450 1A2 (Homo sapiens, UniProt P05177);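 note: PubChem cytochrome P450 panel assay, CYP1A2 panel member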
T4 sequence (P05177 whole entry): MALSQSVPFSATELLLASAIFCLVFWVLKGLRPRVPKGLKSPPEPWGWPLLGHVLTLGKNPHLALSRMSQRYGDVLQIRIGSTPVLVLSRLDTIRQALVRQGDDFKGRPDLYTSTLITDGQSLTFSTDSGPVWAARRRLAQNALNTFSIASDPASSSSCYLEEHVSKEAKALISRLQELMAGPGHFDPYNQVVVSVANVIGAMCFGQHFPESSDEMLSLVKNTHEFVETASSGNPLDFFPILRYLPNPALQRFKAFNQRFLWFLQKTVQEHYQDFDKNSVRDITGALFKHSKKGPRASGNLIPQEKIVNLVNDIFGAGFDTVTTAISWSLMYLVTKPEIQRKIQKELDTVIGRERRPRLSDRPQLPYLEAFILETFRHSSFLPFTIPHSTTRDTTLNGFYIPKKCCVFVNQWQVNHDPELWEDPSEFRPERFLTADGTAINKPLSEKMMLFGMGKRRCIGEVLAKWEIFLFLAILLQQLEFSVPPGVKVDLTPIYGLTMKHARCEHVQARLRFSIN

[16] = biological target: Cytochrome P450 2C9 (Homo sapiens, UniProt P11712)
[17] = biological target: T2, Heat shock factor protein 1; experiment: inhibition of MG132-induced HSE-luciferase signal, confirmation, cell-based, NIH3T3, luminescence, dose retest (AID 2382); assay type: functional;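 note: NIH3T3 fibroblasts with HSF1-driven luciferase reporter stressed by proteasome inhibitor MG132; luminescence from HSF1-driven luciferase expression after 8 hours of MG132 stress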
[18] = biological target: Cytochrome P450 2C19 (Homo sapiens, UniProt P33261); experiment: Cytochrome panel assay with activity outcomes. Panel member name: p450-cyp2c19 Compounds with AC50 equal or less than 10 uM are considered active; assay type: functional; settings: read-out: AC50
[19] = tested on: INS1; experiment: beta cell apoptosis inhibitors, cytokine rescue, dose response, luminescence, retest (AID 449756); assay type: functional, cell-based; settings: Rattus norvegicus;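 note: cell death triggered by IL-1 beta plus TNF-alpha plus IFN-gamma mixture; protective hits raise ATP signal compared with cytokine alone wells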

Sequence of Large T antigen (P03070 whole entry): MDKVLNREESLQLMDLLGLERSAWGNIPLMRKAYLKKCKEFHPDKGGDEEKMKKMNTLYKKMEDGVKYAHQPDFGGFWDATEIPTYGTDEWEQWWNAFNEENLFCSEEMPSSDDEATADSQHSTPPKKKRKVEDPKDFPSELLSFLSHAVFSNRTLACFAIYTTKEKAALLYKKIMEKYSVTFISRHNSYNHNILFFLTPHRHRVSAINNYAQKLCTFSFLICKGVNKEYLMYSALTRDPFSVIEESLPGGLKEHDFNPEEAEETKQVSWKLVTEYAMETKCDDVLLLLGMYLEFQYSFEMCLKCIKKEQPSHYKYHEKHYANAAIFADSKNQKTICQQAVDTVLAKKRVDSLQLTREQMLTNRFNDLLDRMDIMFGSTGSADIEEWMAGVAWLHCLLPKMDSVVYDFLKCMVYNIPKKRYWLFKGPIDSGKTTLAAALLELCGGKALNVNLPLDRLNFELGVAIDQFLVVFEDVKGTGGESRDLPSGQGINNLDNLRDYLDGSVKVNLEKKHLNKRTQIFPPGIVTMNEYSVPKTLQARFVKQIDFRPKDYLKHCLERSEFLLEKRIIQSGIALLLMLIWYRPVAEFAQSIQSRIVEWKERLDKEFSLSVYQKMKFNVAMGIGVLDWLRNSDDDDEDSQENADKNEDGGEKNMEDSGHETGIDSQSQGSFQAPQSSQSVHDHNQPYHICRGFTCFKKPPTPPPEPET
Sequence of Cytochrome P450 2C9 (P11712 whole entry): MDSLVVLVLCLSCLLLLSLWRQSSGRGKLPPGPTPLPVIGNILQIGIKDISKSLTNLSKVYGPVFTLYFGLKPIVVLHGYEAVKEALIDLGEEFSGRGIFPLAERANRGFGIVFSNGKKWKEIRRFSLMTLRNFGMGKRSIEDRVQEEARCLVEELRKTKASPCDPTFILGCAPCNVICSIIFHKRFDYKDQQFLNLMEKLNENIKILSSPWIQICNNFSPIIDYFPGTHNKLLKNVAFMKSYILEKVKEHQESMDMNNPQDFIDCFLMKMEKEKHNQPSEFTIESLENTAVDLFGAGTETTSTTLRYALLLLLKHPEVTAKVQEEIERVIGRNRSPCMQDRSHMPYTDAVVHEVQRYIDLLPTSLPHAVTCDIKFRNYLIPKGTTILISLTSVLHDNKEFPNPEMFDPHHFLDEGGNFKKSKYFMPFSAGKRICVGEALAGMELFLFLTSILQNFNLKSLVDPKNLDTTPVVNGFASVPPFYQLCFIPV
Sequence of Cytochrome P450 2C19 (P33261 whole entry): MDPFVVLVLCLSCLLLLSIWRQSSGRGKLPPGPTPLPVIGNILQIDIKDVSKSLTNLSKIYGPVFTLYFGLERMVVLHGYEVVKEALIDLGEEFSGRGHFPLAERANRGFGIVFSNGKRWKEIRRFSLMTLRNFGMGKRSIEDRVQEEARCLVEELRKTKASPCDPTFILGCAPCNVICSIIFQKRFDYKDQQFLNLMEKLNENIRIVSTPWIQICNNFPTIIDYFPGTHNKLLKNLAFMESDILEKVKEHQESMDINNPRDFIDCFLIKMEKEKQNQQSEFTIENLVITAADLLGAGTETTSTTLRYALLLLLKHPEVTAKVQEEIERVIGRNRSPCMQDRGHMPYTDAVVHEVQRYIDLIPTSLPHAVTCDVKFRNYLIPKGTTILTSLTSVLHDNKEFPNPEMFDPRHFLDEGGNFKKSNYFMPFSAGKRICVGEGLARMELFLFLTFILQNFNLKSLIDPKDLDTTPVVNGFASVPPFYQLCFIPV

SMILES: COc1cc(/C=N/NC(=O)C2=NNC(=O)C2C)ccc1O (stereo not given)
- IC50 [1]: 26.7 µM (active)
- IC50 [2]: 76.3 µM (active)

SMILES: O=C(Nc1nccs1)c1ccc(COc2ccccc2Br)o1
- AC50 [3]: 3.14 µM (active)

SMILES: CCOc1ccc2ncc(S(=O)(=O)c3ccc(C)cc3)c(N3CCC4(CC3)OCCO4)c2c1
- EC50 [4]: 40.5 µM (active)
- EC50 [5]: 74 µM (active)
- EC50 [6]: > 260 µM (inactive)

SMILES: COC(=O)C1=C(c2cccc(C#N)c2)C[C@@H]2CC[C@H]1N2C(=O)NC1Cc2ccccc2C1
- AC50 [3]: > 195 µM (inactive)

SMILES: COc1ccc(C2=Nn3c(nnc3-c3ccncc3)SC2)cc1OC
- EC50 [4]: 19.7 µM (active)
- EC50 [5]: 336 µM (active)
- EC50 [7]: 50.8 µM (active)
- EC50 [8]: 12.4 µM (active)
- EC50 [9]: 14.2 µM (active)

SMILES: CCCc1ccc(-c2cc(NC(=O)CSc3n[nH]c(N)n3)n(-c3ccccc3)n2)cc1
- EC50 [10]: 53.5 µM (active)
- AC50 [3]: 4.18 µM (active)
- EC50 [11]: 7.46 µM (active)
- EC50 [12]: 6.51 µM (active)

SMILES: Nc1ccccc1/N=C/c1ccc(-c2cccc(Cl)c2)o1
- AC50 [3]: 3.68 µM (active)

SMILES: Cc1cc(NC(=O)c2cc(-c3ccncc3)nc3ccccc23)ccc1Br
- AC50 [3]: 4.23 µM (active)

SMILES: Cc1ccc(CNc2ccc3c(c2)ncn3C(C)C)cc1
- IC50 [1]: 42.6 µM (active)

SMILES: C=CCOc1cccc(CNc2ccc3[nH]c(O)nc3c2)c1
- IC50 [13]: > 47.1 µM (inactive)
- IC50 [1]: 14.4 µM (active)
- EC50 [14]: > 53 µM (inactive)

SMILES: COc1ccccc1CN(Cc1cc2cc(C)cc(C)c2nc1O)Cc1nnnn1CC1CCCO1 (stereo not given)
- EC50 [4]: 44.9 µM (active)
- EC50 [5]: 54.9 µM (active)
- AC50 [15]: 20 µM (inconclusive)
- AC50 [16]: 14.1 µM (inconclusive)

SMILES: O=c1c(Cl)c(NCc2ccccc2Cl)cnn1C12CC3CC(CC(C3)C1)C2
- AC50 [3]: 0.508 µM (active)

SMILES: CN(CC(=O)Nc1ccc(Cl)c(Cl)c1)C(=O)C12CC3CC(CC(C3)C1)C2
- AC50 [3]: 5.44 µM (active)

SMILES: NNC(=O)C(=O)Nc1ccc(O)cc1
- IC50 [1]: 9.75 µM (active)

SMILES: CCCCn1c(-c2cccc(C)c2)nc2cc3nc(O)c(C(C)C)nc3cc21
- AC50 [3]: 6.63 µM (active)

SMILES: Oc1ccc(N2CCN(C(=S)NCCc3ccccc3)CC2)cc1
- IC50 [1]: 8.73 µM (active)
- IC50 [2]: 26.1 µM (active)

SMILES: O=C1C2C3C=CC(C4CC34)C2C(=O)N1/N=C/c1ccc(-c2ccc(F)cc2[N+](=O)[O-])o1 (stereo not given)
- AC50 [3]: 1.08 µM (active)

SMILES: Cc1cc(SCC(=O)N/N=C/c2ccc(O)c(O)c2)nc2ccccc12
- IC50 [1]: 6.59 µM (active)

SMILES: CCCc1cc(-c2[nH]nc(C(=O)OCC)c2-c2cscn2)c(O)cc1O
- IC50 [1]: 23.4 µM (active)

SMILES: Nc1ccc(O)c(C(=O)O)c1 [MESALAMINE]
- IC50 [1]: 19.1 µM (active)
- AC50 [16]: 12.6 µM (inconclusive)

SMILES: CCOc1ccc(NCc2nnc(SCC(=O)Nc3cc(C)on3)n2-c2ccc(OC)cc2)cc1
- IC50 [1]: 30.1 µM (active)
- EC50 [17]: > 195 µM (not active)

SMILES: COc1cc(/C=C(\C#N)C(=O)N2CCCCC2)ccc1O
- IC50 [1]: 13 µM (active)

SMILES: Cc1ccc(NC(=O)/C(=C\c2cccc([N+](=O)[O-])c2)NC(=O)c2cccs2)cc1
- EC50 [4]: 22.8 µM (active)
- EC50 [5]: 24.1 µM (active)
- AC50 [18]: 17.8 µM (inconclusive)
- AC50 [16]: 39.8 µM (inconclusive)

SMILES: O=C(CSCc1cccc(Br)c1)N/N=C/c1ccc2c(c1)OCO2
- AC50 [3]: 3 µM (active)

SMILES: COc1cc(SC#N)ccc1/N=C/c1c(C)nn(-c2cccc3ccccc23)c1O
- EC50 [5]: 93.7 µM (active)
- IC50 [1]: 14.1 µM (active)

SMILES: CCCCCCSc1cccc(-c2nc3ccccn3c2NCc2ccccc2)c1
- AC50 [3]: 6.43 µM (active)
- AC50 [19]: 7.57 µM (active)

SMILES: O=C(c1ccc([N+](=O)[O-])cc1)N1CCN(c2cccc3[nH]ccc23)CC1
- IC50 [1]: 25.9 µM (active)

Reference: ChEMBL document CHEMBL1201862, “PubChem BioAssay data set” (2004)
